Laboratory results as given in ChEMBL document CHEMBL2346657, “Synthesis of novel 2-amino-4-(5'-substituted 2'-phenyl-1H-indol-3'-yl)-6-aryl-4H-pyran-3-carbonitrile derivatives as antimicrobial and antioxidant agents” (2013).
The source made the active and inactive calls. How the calls were made is not given here.

Experiments:
Assay type in all cases: functional
[1] = system: Escherichia coli; experiment: Antimicrobial activity against Escherichia coli MTCC 723 at 500 ug/ml after 24 hrs by cup plate method; settings: MTCC 723, 24 h, read-out: IZ
[2] = system: Staphylococcus aureus; experiment: Antimicrobial activity against Staphylococcus aureus ATCC 29513 at 1000 ug/ml after 24 hrs by cup plate method; settings: ATCC 29513, 24 h, read-out: IZ
[3] = system: Aspergillus oryzae; experiment: Antimicrobial activity against Aspergillus oryzae MTCC 3567 at 1000 ug/ml after 72 hrs by cup plate method; settings: MTCC 3567, 72 h, read-out: IZ
[4] = system: Staphylococcus aureus; experiment: Antimicrobial activity against Staphylococcus aureus ATCC 29513 at 500 ug/ml after 24 hrs by cup plate method; settings: ATCC 29513, 24 h, read-out: IZ
[5] = system: Aspergillus terreus; experiment: Antimicrobial activity against Aspergillus terreus MTCC 1782 at 500 ug/ml after 72 hrs by cup plate method; settings: MTCC 1782, 72 h, read-out: IZ
[6] = system: Pseudomonas aeruginosa; experiment: Antimicrobial activity against Pseudomonas aeruginosa MTCC 1688 at 750 ug/ml after 24 hrs by cup plate method; settings: MTCC 1688, 24 h, read-out: IZ
[7] = system: Pseudomonas aeruginosa; experiment: Antimicrobial activity against Pseudomonas aeruginosa MTCC 1688 at 500 ug/ml after 24 hrs by cup plate method; settings: MTCC 1688, 24 h, read-out: IZ
[8] = system: Aspergillus niger; experiment: Antimicrobial activity against Aspergillus niger MTCC 281 at 500 ug/ml after 72 hrs by cup plate method; settings: MTCC 281, 72 h, read-out: IZ
[9] = system: Staphylococcus aureus; experiment: Antimicrobial activity against Staphylococcus aureus ATCC 29513 at 750 ug/ml after 24 hrs by cup plate method; settings: ATCC 29513, 24 h, read-out: IZ
[10] = system: Escherichia coli; experiment: Antimicrobial activity against Escherichia coli MTCC 723 at 750 ug/ml after 24 hrs by cup plate method; settings: MTCC 723, 24 h, read-out: IZ
[11] = system: Pseudomonas aeruginosa; experiment: Antimicrobial activity against Pseudomonas aeruginosa MTCC 1688 at 1000 ug/ml after 24 hrs by cup plate method; settings: MTCC 1688, 24 h, read-out: IZ
[12] = system: Aspergillus flavus; experiment: Antimicrobial activity against Aspergillus flavus MTCC 1973 at 750 ug/ml after 72 hrs by cup plate method; settings: MTCC 1973, 72 h, read-out: IZ
[13] = system: Klebsiella pneumoniae; experiment: Antimicrobial activity against Klebsiella pneumoniae NCTC 13368 at 500 ug/ml after 24 hrs by cup plate method; settings: NCTC 13368, 24 h, read-out: IZ
[14] = system: Aspergillus oryzae; experiment: Antimicrobial activity against Aspergillus oryzae MTCC 3567 at 500 ug/ml after 72 hrs by cup plate method; settings: MTCC 3567, 72 h, read-out: IZ
[15] = system: Klebsiella pneumoniae; experiment: Antimicrobial activity against Klebsiella pneumoniae NCTC 13368 at 750 ug/ml after 24 hrs by cup plate method; settings: NCTC 13368, 24 h, read-out: IZ
[16] = system: Aspergillus niger; experiment: Antimicrobial activity against Aspergillus niger MTCC 281 at 1000 ug/ml after 72 hrs by cup plate method; settings: MTCC 281, 72 h, read-out: IZ
[17] = system: Aspergillus terreus; experiment: Antimicrobial activity against Aspergillus terreus MTCC 1782 at 750 ug/ml after 72 hrs by cup plate method; settings: MTCC 1782, 72 h, read-out: IZ
[18] = Antioxidant activity assessed as metal chelating activity by measuring inhibition of ferrozine-Fe2+ complex formation at 25 to 100 ug/ml
[19] = system: Aspergillus flavus; experiment: Antimicrobial activity against Aspergillus flavus MTCC 1973 at 500 ug/ml after 72 hrs by cup plate method; settings: MTCC 1973, 72 h, read-out: IZ
[20] = system: Escherichia coli; experiment: Antimicrobial activity against Escherichia coli MTCC 723 at 1000 ug/ml after 24 hrs by cup plate method; settings: MTCC 723, 24 h, read-out: IZ
[21] = system: Aspergillus oryzae; experiment: Antimicrobial activity against Aspergillus oryzae MTCC 3567 at 750 ug/ml after 72 hrs by cup plate method; settings: MTCC 3567, 72 h, read-out: IZ
[22] = system: Aspergillus terreus; experiment: Antimicrobial activity against Aspergillus terreus MTCC 1782 at 1000 ug/ml after 72 hrs by cup plate method; settings: MTCC 1782, 72 h, read-out: IZ
[23] = system: Aspergillus niger; experiment: Antimicrobial activity against Aspergillus niger MTCC 281 at 750 ug/ml after 72 hrs by cup plate method; settings: MTCC 281, 72 h, read-out: IZ
[24] = system: Klebsiella pneumoniae; experiment: Antimicrobial activity against Klebsiella pneumoniae NCTC 13368 at 1000 ug/ml after 24 hrs by cup plate method; settings: NCTC 13368, 24 h, read-out: IZ
[25] = system: Aspergillus flavus; experiment: Antimicrobial activity against Aspergillus flavus MTCC 1973 at 1000 ug/ml after 72 hrs by cup plate method; settings: MTCC 1973, 72 h, read-out: IZ

| Compound | zone of inhibition at 500 µg/mL [1] [mm] | zone of inhibition at 1000 µg/mL [2] [mm] | zone of inhibition at 1000 µg/mL [3] [mm] | zone of inhibition at 500 µg/mL [4] [mm] | zone of inhibition at 500 µg/mL [5] [mm] | zone of inhibition at 750 µg/mL [6] [mm] | zone of inhibition at 500 µg/mL [7] [mm] | zone of inhibition at 500 µg/mL [8] [mm] | zone of inhibition at 750 µg/mL [9] [mm] | zone of inhibition at 750 µg/mL [10] [mm] | zone of inhibition at 1000 µg/mL [11] [mm] | zone of inhibition at 750 µg/mL [12] [mm] | zone of inhibition at 500 µg/mL [13] [mm] | zone of inhibition at 500 µg/mL [14] [mm] | zone of inhibition at 750 µg/mL [15] [mm] | zone of inhibition at 1000 µg/mL [16] [mm] | zone of inhibition at 750 µg/mL [17] [mm] | Activity [18] | zone of inhibition at 500 µg/mL [19] [mm] | zone of inhibition at 1000 µg/mL [20] [mm] | further results |
| --- | --- | --- | --- | --- | --- | --- | --- | --- | --- | --- | --- | --- | --- | --- | --- | --- | --- | --- | --- | --- | --- |
| Cc1ccc(C2=CC(c3c(-c4ccccc4)[nH]c4ccc(Cl)cc34)c3c(N)nc(=S)[nH]c3O2)cc1 (stereo not given) | 10 | 2 | 2 | 6 | 9 | 10 | 10 | 10 | 3 | 9 | 10 | 3 | 10 | 3 | 10 | 10 | 8 | Active | 3 | 9 | zone of inhibition at 750 µg/mL [21]: 2 mm; zone of inhibition at 1000 µg/mL [22]: 8 mm; zone of inhibition at 750 µg/mL [23]: 10 mm; zone of inhibition at 1000 µg/mL [24]: 9 mm; zone of inhibition at 1000 µg/mL [25]: 3 mm |
| O=c1[nH]cnc2c1C(c1c(-c3ccccc3)[nH]c3ccccc13)C=C(c1ccc(Cl)cc1)O2 (stereo not given) | 9 | 5 | 10 | 5 | 6 | 10 | 10 | 8 | 5 | 9 | 10 | 9 | 9 | 10 | 9 | 8 | 6 | Active | 10 | 9 | zone of inhibition at 750 µg/mL [21]: 10 mm; zone of inhibition at 1000 µg/mL [22]: 5 mm; zone of inhibition at 750 µg/mL [23]: 8 mm; zone of inhibition at 1000 µg/mL [24]: 10 mm; zone of inhibition at 1000 µg/mL [25]: 8 mm |
| Nc1n[nH]c2c1C(c1c(-c3ccccc3)[nH]c3ccccc13)C=C(c1ccccc1)O2 (stereo not given) | 10 | 2 | 10 | 2 | 5 | 12 | 12 | 5 | 2 | 9 | 12 | 10 | 10 | 6 | 9 | 6 | 5 | Active | 10 | 9 | zone of inhibition at 750 µg/mL [21]: 5 mm; zone of inhibition at 1000 µg/mL [22]: 5 mm; zone of inhibition at 750 µg/mL [23]: 5 mm; zone of inhibition at 1000 µg/mL [24]: 8 mm; zone of inhibition at 1000 µg/mL [25]: 3 mm |
| Cc1ccc(C2=CC(c3c(-c4ccccc4)[nH]c4ccc(C)cc34)C(C#N)=C(N)O2)cc1 (stereo not given) | 8 | 14 | 13 | 14 | 0 | 10 | 10 | 0 | 14 | 4 | 8 | 0 | 9 | 12 | 9 | 0 | 9 | Active | 0 | 3 | zone of inhibition at 750 µg/mL [21]: 13 mm; zone of inhibition at 1000 µg/mL [22]: 9 mm; zone of inhibition at 750 µg/mL [23]: 0 mm; zone of inhibition at 1000 µg/mL [24]: 9 mm; zone of inhibition at 1000 µg/mL [25]: 0 mm |
| Cc1ccc(C2=CC(c3c(-c4ccccc4)[nH]c4ccccc34)c3c(N)n[nH]c3O2)cc1 (stereo not given) | 8 | 3 | 7 | 5 | 4 | 6 | 8 | 9 | 3 | 8 | 6 | 2 | 4 | 7 | 3 | 5 | 4 | Active | 3 | 8 | zone of inhibition at 750 µg/mL [21]: 7 mm; zone of inhibition at 1000 µg/mL [22]: 4 mm; zone of inhibition at 750 µg/mL [23]: 9 mm; zone of inhibition at 1000 µg/mL [24]: 2 mm; zone of inhibition at 1000 µg/mL [25]: 8 mm |
| Cc1ccc(C2=CC(c3c(-c4ccccc4)[nH]c4ccc(Cl)cc34)C(C#N)=C(N)O2)cc1 (stereo not given) | 10 | 6 | 2 | 8 | 5 | 6 | 6 | 4 | 5 | 10 | 3 | 5 | 10 | 8 | 10 | 3 | 3 | Active | 5 | 10 | zone of inhibition at 750 µg/mL [21]: 8 mm; zone of inhibition at 1000 µg/mL [22]: 3 mm; zone of inhibition at 750 µg/mL [23]: 3 mm; zone of inhibition at 1000 µg/mL [24]: 10 mm; zone of inhibition at 1000 µg/mL [25]: 5 mm |
| Cc1ccc2[nH]c(-c3ccccc3)c(C3C=C(c4ccc(Cl)cc4)Oc4nc[nH]c(=O)c43)c2c1 (stereo not given) | 8 | 10 | 8 | 10 | 6 | 4 | 4 | 10 | 10 | 8 | 4 | 5 | 5 | 8 | 5 | 11 | 6 | Active | 5 | 8 | zone of inhibition at 750 µg/mL [21]: 8 mm; zone of inhibition at 1000 µg/mL [22]: 6 mm; zone of inhibition at 750 µg/mL [23]: 10 mm; zone of inhibition at 1000 µg/mL [24]: 5 mm; zone of inhibition at 1000 µg/mL [25]: 5 mm |
| Cc1ccc2[nH]c(-c3ccccc3)c(C3C=C(c4ccccc4)OC(N)=C3C#N)c2c1 (stereo not given) | 6 | 5 | 3 | 5 | 6 | 5 | 6 | 9 | 5 | 6 | 5 | 2 | 4 | 8 | 4 | 10 | 5 | Active | 2 | 5 | zone of inhibition at 750 µg/mL [21]: 4 mm; zone of inhibition at 1000 µg/mL [22]: 5 mm; zone of inhibition at 750 µg/mL [23]: 10 mm; zone of inhibition at 1000 µg/mL [24]: 4 mm; zone of inhibition at 1000 µg/mL [25]: 4 mm |
